In one assay the target is Human Androgen Receptor (Homo sapiens (Human), UniProt P10275). Kind of assay: Androgen receptor assay: [3H]R1881 displacement, cytosol of HEK-293 cells transfected with hAR (hydroxylapatite assay). It counts as binding. The conditions noted are these: relative binding affinity, R1881 = 100.
Assay [1] has as its system Shionogi mouse mammary carcinoma cells. The assay can be described thus: In vitro androgenic/antiandrogenic activity: proliferation of Shionogi cells with or without DHT. To be noted: Mus musculus. It is filed as cell-based.
The test system of assay [2] is castrated (CX) immature male rats. The assay can be described thus: Systemic androgenic (agonistic) activity in orchidectomized (CX) immature male rats. The conditions noted are these: 0.1 mg/rat/po, 7 days; for CX Agonistic activity % Stimulation Bulbo: bulbocavernosus muscles weight; for CX Agonistic activity % Stimulation SV: seminal vesicles weight; for CX Agonistic activity % Stimulation Prostate: ventral prostate weight. It counts as in vivo, rat. As to the method:
Immature male rats (Crl:CD(SD)Br) 22 to 24-day old weighting 60-80 g at start of treatment were obtained from Charles-River, Inc. (St-Constant, Quebec, Canada) and housed up to 5 per cage in plastic bins in a temperature (23±1° C.)- and light (12 h light/day, lights on at 7 h15)-controlled environment. The rats were fed rodent chow and tap water ad libitum. […] The day following their arrival, the designed animals were orchidectomized (CX) under Isoflurane anesthesia (Study Day 1) via the scrotal route and were then randomly assigned to groups of 3 to 5 animals. At the time of orchidectomy, one silastic implant of dihydrotestosterone (DHT; 1 cm length of pure DHT in silastic tubing having inner and outer diameter of 0.078 and 0.125 inches, respectively), was inserted subcutaneously in the dorsal area of animals assigned to the evaluation of antiandrogenic activity. In the case of intact animal experiments, the orchidectomy and the silastic implant installation are omitted.
Tested compounds were administered orally once daily for 7 days from Study Day 2 to Study Day 8 at doses generally ranging from 0.1 and 0.5 mg/animal. Compounds were either solubilized in dimethylsulfoxide (DMSO, 10% final concentration) and were administered as a solution/suspension in 0.9% NaCl-1% gelatin or were administered as suspensions in 0.4% aqueous methylcellulose. Animals of the control groups received the corresponding vehicle alone during the 7-day period. Some animals were treated with the antiandrogen Flutamide or Casodex as reference. The animals under isoflurane anesthesia were killed by cervical dislocation on day 9 of the study, approximately 24 h after the last dosing. The ventral prostate, seminal vesicles and bulbocavernosus muscles were rapidly dissected and weighed.
For calculations with intact animals, control DHT is replaced by control intact and the % stimulation is subtracted by 100%. W is the weight of the prostate, seminal vesicles or bulbocavernosus muscles. Discussion

Setting [3] is: read-out: Shionogi Antiandrogenic Activity IC50, DHT (0.3 nM)-stimulated cell number.
Setting [4] is: DHT (0.3 nM)-stimulated cell number, read-out: Shionogi Antiandrogenic Activity IC50.

SMILES strings stand for the structures. Where two headings read alike, the source gives them in different places.

The record followed here is patent US9682960B2 (priority 2013, dated 2017).

The IC50 is the concentration that inhibits the measured activity by half.

Sequence of Human Androgen Receptor (P10275 whole entry): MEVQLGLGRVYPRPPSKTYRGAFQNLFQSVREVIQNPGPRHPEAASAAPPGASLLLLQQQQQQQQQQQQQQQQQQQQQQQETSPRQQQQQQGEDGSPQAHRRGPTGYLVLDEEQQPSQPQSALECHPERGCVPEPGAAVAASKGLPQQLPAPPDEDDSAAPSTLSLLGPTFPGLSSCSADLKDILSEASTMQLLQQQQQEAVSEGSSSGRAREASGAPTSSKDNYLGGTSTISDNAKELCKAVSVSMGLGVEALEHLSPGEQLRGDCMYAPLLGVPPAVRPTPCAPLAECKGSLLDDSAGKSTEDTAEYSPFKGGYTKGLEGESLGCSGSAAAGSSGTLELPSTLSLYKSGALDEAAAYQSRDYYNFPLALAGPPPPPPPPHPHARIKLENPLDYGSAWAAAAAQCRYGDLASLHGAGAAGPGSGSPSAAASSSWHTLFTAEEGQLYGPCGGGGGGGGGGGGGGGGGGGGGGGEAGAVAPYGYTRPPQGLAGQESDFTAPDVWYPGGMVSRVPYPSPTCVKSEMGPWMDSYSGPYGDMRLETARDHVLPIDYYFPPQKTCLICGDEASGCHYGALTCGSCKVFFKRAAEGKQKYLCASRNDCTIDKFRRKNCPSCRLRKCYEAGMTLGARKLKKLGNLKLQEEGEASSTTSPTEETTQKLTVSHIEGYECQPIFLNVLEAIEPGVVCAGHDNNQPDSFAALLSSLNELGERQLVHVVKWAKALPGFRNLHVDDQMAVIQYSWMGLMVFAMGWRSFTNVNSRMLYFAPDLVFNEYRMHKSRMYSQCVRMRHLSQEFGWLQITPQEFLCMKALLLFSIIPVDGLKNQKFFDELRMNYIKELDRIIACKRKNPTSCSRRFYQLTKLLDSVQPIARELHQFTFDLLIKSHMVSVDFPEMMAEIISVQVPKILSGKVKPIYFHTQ

As to `Cc1c(N2C(=O)C(C)(C)N(CCCOc3ccc4ncccc4c3)C2=S)ccc(C#N)c1Cl` [EM-8728], the “Human Androgen Receptor Binding RBA (%) R1881 = 100” value on Human Androgen Receptor ([…]) was determined as 125.4%. Besides, the IC50 in assay [1] (setting [3]) amounted to 53.4 nM. In assay [2], the “CX Agonistic activity % Stimulation Bulbo” value is reported as 98%, the “CX Agonistic activity % Stimulation SV” value worked out at 25% and the “CX Agonistic activity % Stimulation Prostate” value amounted to 48%.

For the molecule `Cc1c(N2C(=O)C(C)(C)N(CCCOc3ccc4cccnc4c3)C2=S)ccc(C#N)c1Cl` [EM-8730], the “Human Androgen Receptor Binding RBA (%) R1881 = 100” value at Human Androgen Receptor (transfected cells) was 140.5%. For the same molecule, in assay [1] (setting [4]), the 50% inhibitory concentration (IC50) stood at 105 nM. Besides, in assay [2], the “CX Agonistic activity % Stimulation Bulbo” value was 178%, the “CX Agonistic activity % Stimulation SV” value was 73% and the “CX Agonistic activity % Stimulation Prostate” value came to 59%.

For the molecule `Cc1c(N2C(=O)C(C)(C)N(CCCOc3ccc(-c4ccncc4)cc3C(F)(F)F)C2=S)ccc(C#N)c1C(F)(F)F` [EM-8772], the “Human Androgen Receptor Binding RBA (%) R1881 = 100” value at Human Androgen Receptor (transfected cells) was determined as 2.6%. Further, in assay [1] (setting [4]), the 50% inhibitory concentration (IC50) came out at 137 nM. For the same molecule, in assay [2], the “CX Agonistic activity % Stimulation Bulbo” value was 104%, the “CX Agonistic activity % Stimulation SV” value is recorded as 15% and the “CX Agonistic activity % Stimulation Prostate” value was 29%.

For the molecule `Cc1c(N2C(=O)C(C)(C)N(CCCOc3ccc(-c4ccncc4)cc3C(F)(F)F)C2=S)ccc(C#N)c1Cl` [EM-8773], the “Human Androgen Receptor Binding RBA (%) R1881 = 100” value at Human Androgen Receptor ([…]) amounted to 28.1%. In assay [1] (setting [3]), the IC50 worked out at 125 nM. For the same molecule, in assay [2], the “CX Agonistic activity % Stimulation Bulbo” value is listed as 123%, the “CX Agonistic activity % Stimulation SV” value is recorded as 30% and the “CX Agonistic activity % Stimulation Prostate” value is reported as 30%.

Consider `Cc1c(N2C(=O)N(CCCOc3ccc4cccnc4c3)C(C)(C)C2=O)ccc(C#N)c1Cl` [EM-8786], for which the “Human Androgen Receptor Binding RBA (%) R1881 = 100” value on Human Androgen Receptor (transfected cells) is 8.9 ± 0.2 (n = 2) %. Besides, the IC50 in assay [1] (setting [3]) worked out at 191 ± 87 nM. Further, in assay [2], the “CX Agonistic activity % Stimulation Bulbo” value is 124 ± 32 (n = 2) %, the “CX Agonistic activity % Stimulation SV” value is 10 ± 10 (n = 2) % and the “CX Agonistic activity % Stimulation Prostate” value is 35 ± 10 (n = 2) %.

As to `Cc1c(N2C(=O)C(C)(C)N(CCCOc3ccc(-c4ccncc4)cc3F)C2=S)ccc(C#N)c1C(F)(F)F` [EM-8793], the “Human Androgen Receptor Binding RBA (%) R1881 = 100” value on Human Androgen Receptor (transfected cells) is given as 412%. In assay [1] (setting [3]), the IC50 stood at 48.2 nM. For the same molecule, in assay [2], the “CX Agonistic activity % Stimulation Bulbo” value came out at 139%, the “CX Agonistic activity % Stimulation SV” value is 42% and the “CX Agonistic activity % Stimulation Prostate” value is recorded as 29%.

Consider `Cc1c(N2C(=O)C(C)(C)N(CCCOc3ccc(-c4ccncc4)c(F)c3)C2=S)ccc(C#N)c1Cl` [EM-8796], for which the “Human Androgen Receptor Binding RBA (%) R1881 = 100” value at Human Androgen Receptor ([…]) was found to be 698%. Moreover, the half-inhibitory concentration (IC50) in assay [1] (setting [3]) is 188 nM. Also, in assay [2], the “CX Agonistic activity % Stimulation Bulbo” value came to 168%, the “CX Agonistic activity % Stimulation SV” value was determined as 127% and the “CX Agonistic activity % Stimulation Prostate” value is on record as 58%.

For `Cc1c(N2C(=O)C(C)(C)N(CCCOc3ccc(-c4ccncc4)c(F)c3)C2=S)ccc(C#N)c1C(F)(F)F` [EM-8797], on Human Androgen Receptor (transfected cells), the “Human Androgen Receptor Binding RBA (%) R1881 = 100” value is listed as 400%. Also, the IC50 in assay [1] (setting [4]) is 108 nM. Further, in assay [2], the “CX Agonistic activity % Stimulation Bulbo” value worked out at 143%, the “CX Agonistic activity % Stimulation SV” value is 58% and the “CX Agonistic activity % Stimulation Prostate” value turned out to be 50%.

On to `Cc1c(N2C(=O)C(C)(C)N(CCCOc3ccc(-c4ccncc4)cc3Cl)C2=S)ccc(C#N)c1C(F)(F)F` [EM-8798], for which, on Human Androgen Receptor (transfected cells), the “Human Androgen Receptor Binding RBA (%) R1881 = 100” value was 219%. Further, in assay [1] (setting [3]), the IC50 came out at 130 nM. In assay [2], the “CX Agonistic activity % Stimulation Bulbo” value came to 114%, the “CX Agonistic activity % Stimulation SV” value was 25% and the “CX Agonistic activity % Stimulation Prostate” value came to 49%.

As to `Cc1c(N2C(=O)C(C)(C)N(CCCOc3ccc(-c4ccncc4)cc3Cl)C2=S)ccc(C#N)c1Cl` [EM-8799], at Human Androgen Receptor ([…]), the “Human Androgen Receptor Binding RBA (%) R1881 = 100” value is listed as 877%. For the same molecule, the IC50 in assay [1] (setting [3]) amounted to 116 nM. Moreover, in assay [2], the “CX Agonistic activity % Stimulation Bulbo” value was found to be 126%, the “CX Agonistic activity % Stimulation SV” value is reported as 55% and the “CX Agonistic activity % Stimulation Prostate” value is given as 58%.

On to `Cc1c(N2C(=O)C(C)(C)N(CCCOc3ccc(-c4ccncc4)cn3)C2=S)ccc(C#N)c1Cl` [EM-8815], for which the “Human Androgen Receptor Binding RBA (%) R1881 = 100” value on Human Androgen Receptor (transfected cells) came out at 159%. For the same molecule, the half-inhibitory concentration (IC50) in assay [1] (setting [3]) is 80 nM. Further, in assay [2], the “CX Agonistic activity % Stimulation Bulbo” value amounted to 163%, the “CX Agonistic activity % Stimulation SV” value is reported as 75% and the “CX Agonistic activity % Stimulation Prostate” value is given as 59%.

For the molecule `Cc1c(N2C(=O)C(C)(C)N(CCCOc3ccc(-c4ccncc4)c(C(F)(F)F)c3)C2=S)ccc(C#N)c1Cl` [EM-8820], on Human Androgen Receptor (transfected cells), the “Human Androgen Receptor Binding RBA (%) R1881 = 100” value is 263%. For the same molecule, the half-maximal inhibitory concentration (IC50) in assay [1] (setting [3]) came out at 21.8 nM. Also, in assay [2], the “CX Agonistic activity % Stimulation Bulbo” value came out at 154%, the “CX Agonistic activity % Stimulation SV” value is on record as 58% and the “CX Agonistic activity % Stimulation Prostate” value was found to be 33%.

In the case of `Cc1c(N2C(=O)C(C)(C)N(CCCOc3ccc(-c4ccncc4)nc3)C2=S)ccc(C#N)c1Cl` [EM-8827], the “Human Androgen Receptor Binding RBA (%) R1881 = 100” value at Human Androgen Receptor ([…]) stood at 113%. Further, the IC50 in assay [1] (setting [3]) is 118 ± 14 nM. Besides, in assay [2], the “CX Agonistic activity % Stimulation Bulbo” value is 133%, the “CX Agonistic activity % Stimulation SV” value was found to be 38% and the “CX Agonistic activity % Stimulation Prostate” value was found to be 41%.

`Cc1c(N2C(=O)C(C)(C)N(CCCOc3ccc(Oc4ccc(Cl)nc4)nc3)C2=S)ccc(C#N)c1Cl` [EM-8828]: the “Human Androgen Receptor Binding RBA (%) R1881 = 100” value at Human Androgen Receptor ([…]) was determined as 112%. In addition, the IC50 in assay [1] (setting [3]) worked out at 96.5 nM. Further, in assay [2], the “CX Agonistic activity % Stimulation Bulbo” value was found to be 161%, the “CX Agonistic activity % Stimulation SV” value worked out at 31% and the “CX Agonistic activity % Stimulation Prostate” value turned out to be 40%.

As for `Cc1c(N2C(=O)C(C)(C)N(CCCOc3ccc4cnccc4c3)C2=S)ccc(C#N)c1Cl` [EM-8869], the “Human Androgen Receptor Binding RBA (%) R1881 = 100” value at Human Androgen Receptor (transfected cells) was 56%. Further, in assay [1] (setting [4]), the IC50 was about 1000 nM. Besides, in assay [2], the “CX Agonistic activity % Stimulation Bulbo” value amounted to 101%, the “CX Agonistic activity % Stimulation SV” value turned out to be 18% and the “CX Agonistic activity % Stimulation Prostate” value was 31%.

In the case of `Cc1c(N2C(=O)C(C)(C)N(CCCOc3ccc(-c4ccncc4)c(Cl)c3)C2=S)ccc(C#N)c1Cl` [EM-8887], the “Human Androgen Receptor Binding RBA (%) R1881 = 100” value at Human Androgen Receptor ([…]) is 1890 ± 1040 (n = 2) %. The IC50 in assay [1] (setting [3]) was found to be 133 nM. Moreover, in assay [2], the “CX Agonistic activity % Stimulation Bulbo” value is listed as 214%, the “CX Agonistic activity % Stimulation SV” value is reported as 107% and the “CX Agonistic activity % Stimulation Prostate” value amounted to 55%.

As to `Cc1c(N2C(=O)C(C)(C)N(CCCOc3ccc(-c4cc[n+]([O-])cc4)cc3)C2=S)ccc(C#N)c1Cl` [EM-8913], on Human Androgen Receptor ([…]), the “Human Androgen Receptor Binding RBA (%) R1881 = 100” value is reported as 114%. For the same molecule, in assay [1] (setting [3]), the IC50 is over 100 nM. Besides, in assay [2], the “CX Agonistic activity % Stimulation Bulbo” value is reported as 160%, the “CX Agonistic activity % Stimulation SV” value is listed as 65% and the “CX Agonistic activity % Stimulation Prostate” value is 54%.

With `Cc1c(N2C(=O)C(C)(C)N(CCCOc3ccc(-c4ccnc(F)c4)cc3)C2=S)ccc(C#N)c1Cl` [EM-8922], the “Human Androgen Receptor Binding RBA (%) R1881 = 100” value on Human Androgen Receptor ([…]) worked out at 414%. Besides, in assay [1] (setting [3]), the IC50 came to 79 nM. In assay [2], the “CX Agonistic activity % Stimulation Bulbo” value was found to be 134%, the “CX Agonistic activity % Stimulation SV” value is 54% and the “CX Agonistic activity % Stimulation Prostate” value worked out at 52%.

On to `Cc1c(N2C(=O)C(C)(C)N(CCCOc3ccc(-c4ccncc4)c(C#N)c3)C2=S)ccc(C#N)c1Cl` [EM-8933], for which the “Human Androgen Receptor Binding RBA (%) R1881 = 100” value on Human Androgen Receptor ([…]) turned out to be 134%. In addition, the IC50 in assay [1] (setting [3]) stood at 110 nM. In addition, in assay [2], the “CX Agonistic activity % Stimulation Bulbo” value turned out to be 136%, the “CX Agonistic activity % Stimulation SV” value amounted to 43% and the “CX Agonistic activity % Stimulation Prostate” value was determined as 46%.
